Where two headings read alike, the source gives them in different places.
Columns and labels:
PC3 cells = assay: Cell growth assay, trypan blue dye exclusion count; type: cell-based
Description: Cell Line and Cell Growth Assay. Human prostate cancer cell line PC-3 was procured from the American Type Cell Culture Collection (Manassas, Va.). Cells were grown in IMEM without phenol red (Invitrogen, Carlsbad, Calif.) with 10% fetal bovine serum, 2 mM glutamine, 100 U/mL penicillin G sodium, and 100 μg/mL streptomycin sulfate (Sigma, St. Louis, Mo.) in the presence of 5% CO2 at 37° C. For the cell growth experiment, PC-3 cells were seeded in 6-well plates in triplicate with an initial density of 2×10^3 cells per well. Twenty-four hours after seeding, the attached cells were treated with vehicle (DMSO) or 1, 5, 15, 30 and 60 μM compound. After another twenty-four hours, the cells were washed with 1×PBS, trypsinized and re-suspended in complete growth medium. Trypan blue (0.4%) was added to the cell suspension and both live and dead cells were counted using a hemocytometer.
Compounds 6-10 were screened for growth inhibition in PC-3 human prostate cancer cells using previously reported methods (Table 1; Sinha et al. The Prostate. 2006, 66, 1257-1265). […] This was unexpected, since the methyl moiety of mahanine is in the 3-position. Compound 9, with its GI50 value near that of the compound 6 series (compounds 6, 6a, 8) and a deprotected hydroxyl group in the 2-position, implies that whatever hindrance is imposed by a methyl in the 3-position can be partially overcome if steric bulk at the 2-position is reduced. Indeed, looking at the structure of mahanine, the restraint of the ether cycle may provide enough reduction of apparent bulk at the 2-position to moderate its methyl in the 3-position. Additionally, the ether ring system puts the equivalent of a methyl group in the 1-position, which could also be aiding in the low μM activity of mahanine, if the relatively lower values for the compound 6 series are any indication. Moreover, analyzing the structure of compound 10 based on the same criteria, the double-bonded carbon of the ether cycle in the 3-position along with bulk off the 2-position might explain its lesser growth inhibition when compared to mahanine, while the methyl in the 1-position still gives it better activity than compounds 7 and 7a.

PC-3 cells = assay: BrdU labeling, DNA synthesis (Cell Proliferation ELISA BrdU); type: cell-based, human; details: 5 μM compound, 24 hours
Description: PC-3 cells were plated in 96-well plates and treated with 5 μM of compound. After 24 hours, the cells were assayed for BrdU labeling using the Cell Proliferation ELISA BrdU kit from Roche; background BrdU incorporation levels (absent anti-BrdU-peroxidase solution) were subtracted and values were normalized to those of control untreated cells.
BrdU Labeling. For the BrdU experiment, PC-3 cells were seeded in 96-well plates at a density of 2×10^3 cells/well, treated with 5 μM of compound for 24 hr and assayed BrdU using the Cell Proliferation ELISA BrdU (chemiluminescence) (Roche Diagnostics, IN) kit according to the manufacturer's protocol. Briefly, 10 μL of 100 μM BrdU labeling solution was added to the cultured cells and were incubated for 1 hr at 37° C., the labeling solution was removed and the FixDenat solution provided with the kit was added for 30 min and incubated at room temperature. Cells were then incubated with anti-BrdU conjugated to peroxidase (1:1500) for 60 min. Finally, the plates were washed and 100 μL of substrate solution was added to each well, and the light emission was measured using a microplate luminometer (Harta Instruments, Inc., Gaithersburg, Md.).
To assess the levels of DNA synthesis within cells treated with mahanine compared to those treated with compounds 6-10, cultured cells were treated according to standard procedure with 5-bromo-2-deoxy-uridine (BrdU) after 24 hours of treatment (FIG. 2).

RASSF1A = assay: RT-PCR of RASSF1A mRNA in treated PC-3 cells; type: cell-based, human
Description: (§1) Representative photograph of an experiment repeated thrice. PC-3 cells were treated 24 hours with either 15 μM for compounds 6, 7, 7a, 8, 9, 10 or 5 μM for compound KED-4-69 (compound 6a) before RNA extraction and RT-PCR amplification.
(§2) Reverse Transcriptase-polymerase Chain Reaction (RT-PCR). From PC-3 cells incubated 24 hours with either 15 μM of compound 6, 7, 7a, 8, 9, 10 or 5 μM of KED-4-69 (compound 6a), RNA was extracted with TRIzol solution (Invitrogen, Carlsbad, Calif.) and genes of interest were amplified using 500 ng of total RNA reverse-transcribed to cDNA using a Superscript II kit (Invitrogen) with random hexamers. Human-specific primers were designed using the Primer Quest program and purchased from Integrated DNA Technologies, Inc. (Coralville, Iowa). Their sequences and product band sizes are: cyclin D1 forward primer 5′-[…]-3′ (SEQ ID NO:1), cyclin D1 reverse primer 5′-[…]-3′ (SEQ ID NO:2) (475 bp) and GAPDH forward primer: 5′-CCA […]-3′ (SEQ ID NO:3), GAPDH reverse primer: 5′-TCTAGACGGCAG GTCAGGTCCACC-3′ (SEQ ID NO:4) (598 bp). PCRs were initiated at 94° C. for 2 min, followed by 28 cycles of 94° C. for 1 min, 1 min annealing temperature, 72° C. for 1 min, and final extension at 72° C. for 5 min. The annealing temperature for cyclin D1 and GAPDH was 60° C. Primers and PCR conditions for RASSF1A are used as described by Rong et al. (Oncogene. 2004, 23, 8216-8230). After amplification, PCR products were separated on 1.5% agarose gels and visualized by ethidium bromide fluorescence using the Fuji LAS-1000 Imager. Images were captured and imported to Adobe Photoshop. Band intensities were quantified by using ImageJ software (NIH, Bethesda, Md.).
(§3) It has been reported that mRNA levels of RASSF1A correlate to its protein expression levels (Rong et al. Oncogene, 2004, 23: 8216-8230). To investigate the effects of the synthetic compounds on RASSF1A and cyclin D1 expression, levels of the respective mRNAs in treated cells compared to control were analyzed (FIG. 3). […] Because overexpression of cyclin D1 is associated with tumorigenicity and proliferation in a variety of tumors, including prostate cancers, this downregulation provides a cancer treatment method (Chen, Y. et al. Oncogene. 1998, 16, 1913-1920; Musgrove, E. A. et al. Proc. Natl. Acad. Sci. USA. 1994, 91, 8022-8026).

cyclin D1 = assay: RT-PCR of cyclin D1 mRNA in treated PC-3 cells; type: cell-based, human
Description: as §1, §2, §3

[1] = system: DNA methyltransferase (DNMT); assay: DNA methyltransferase activity assay (EpiQuik kit, nuclear extracts of treated PC-3 cells); type: cell-based, human; details: 72 hours
Description: Black bars: PC-3 cells were treated 72 hours with either mahanine or compound 6a at 5 μM or compound 6, 7, 7a, 8, or 9 at 15 μM and then assayed for DNMT activity using the DNMT activity kit from Epigentek. Data are mean of three independent experiments ±SEM. Grey bars: Densitometry from RT-PCR blot where the amount of RASSF1A mRNA re-expressed by mahanine treatment is normalized to 100%.
DNA methyltransferase activity assay. PC-3 cells were plated in complete growth media, treated with either mahanine or compound 6a at 2 μM or compound 6, 7, 7a, 8, 9, 10 at 15 μM for 3 days and then harvested. Nuclear extracts were prepared according to manufacturer's protocol (Nuclear extraction kit, Epigentek). DNMT activity was measured using an EpiQuik DNA methyltransferase activity assay kit (Epigentek). Results were expressed as percent DNMT activity compared to the DMSO control as 100%.
The levels of DNMT activity in treated versus untreated prostate cancer cells were measured using a DNMT assay kit from Epigentek. […] These reduced DNMT activities correlate with the pattern of RASSF1A induction described above (FIG. 7, grey bars). The data imply that inhibition of DNMT prevents hypermethylation of the RASSF1A promoter region and consequently restores RASSF1A.

[2] = Homo sapiens, PC-3, concentration for 50% growth inhibition in PC3 cells, 24 hours of treatment, mean ± SEM of three observations, read-out: GI50
[3] = mahanine, concentration not given

Molecule | GI50 (PC3 cells; [2]) [µM] | DNA synthetic ability (BrdU labeling) (PC-3 cells) | RASSF1A mRNA level versus control (RASSF1A; 15 μM, 24 hours) | cyclin D1 mRNA level versus control (cyclin D1; 15 μM, 24 hours) | DNMT activity versus DMSO control ([1]; 15 μM) | further results
COc1ccc2c(c1)[nH]c1c(C)c(OCc3ccccc3)ccc12 [Compound 6, 2-(Benzyloxy)-7-methoxy-1-methyl-9H-carbazole] | 17.6 ± 2.7 | decrease in DNA synthetic ability | significant increase in RASSF1A | corresponding decrease in cyclin D1 | Significant inhibition of DNMT activity | –
COc1ccc2c(c1)[nH]c1cc(OCc3ccccc3)c(C)cc12 [Compound 7, 2-(benzyloxy)-7-methoxy-3-methyl-9H-carbazole] | 48.9 ± 1.1 | – | no change in expression levels from control | no change in expression levels from control | – | –
COc1ccc2c(c1)[nH]c1cc(OS(=O)(=O)c3cccc4c(N(C)C)cccc34)c(C)cc12 [Compound 7a, 7-Methoxy-3-methyl-9H-carbazol-2-yl 5-(dimethylamino)naphthalene-1-sulfonate] | 22.9 ± 4.5 | – | no change in expression levels from control | no change in expression levels from control | – | –
COc1ccc2c(c1)[nH]c1c(C)c(O)ccc12 [Compound 8, 7-Methoxy-1-methyl-9H-carbazol-2-ol] | – | no change in the DNA synthetic ability | – | – | slight decrease in DNMT activity | GI50 (PC3 cells; Homo sapiens, PC-3, 24 h): 18.7 ± 1.8 µM
COc1ccc2c(c1)[nH]c1cc(O)c(C)cc12 [Compound 9, 7-Methoxy-3-methyl-9H-carbazol-2-ol] | 15.3 ± 2.8 | decrease in DNA synthetic ability | – | – | slight decrease in DNMT activity | –
mahanine [reference compound] | – | decrease in DNA synthetic ability | – | – | – | doses at which cytotoxic (PC3 cells; PC-3 cells): above 5 μM; GI50 (PC3 cells; concentration for 50% growth inhibition in PC3 cells, 24 hours of treatment, mean ± SEM of three observations, read-out: GI50): 2.5 ± 0.18 µM; RASSF1A mRNA level versus control (RASSF1A; [3]): significant increase in RASSF1A; cyclin D1 mRNA level versus control (cyclin D1; [3]): corresponding decrease in cyclin D1; DNMT activity versus DMSO control ([1]; 5 μM (FIG. 7 legend; method says 2 μM)): Significant inhibition of DNMT activity

— US10457639B2, “Fluorescent regulators of RASSF1A expression and human cancer cell proliferation” (GEORGETOWN UNIVERSITY, priority 2008, dated 2019)
